What was measured:
Format in all cases: functional
[1] = target: Calcium-dependent protein kinase 1 (Plasmodium falciparum, UniProt P62344); experiment: MMV: CDPK1 Protein kinase inhibition assay using recombinant PfCDPK1, syntide 2 peptide substrate, ATP and KinaseGlo to measure % inhibition at 1 uM MMV box compound.
[2] = target: T1, Putative uncharacterized protein pk7 (Plasmodium falciparum, UniProt O96214); experiment: Final concentrations were 1 uM ATP, 2 mM DTT, 20 mM MgCl2, 2 mM MnCl2, 0.01% BSA, and 6 ug/ml PK7, in a buffer of 20 mM Tris-HCl (pH 7.5). The enzyme itself was the only substrate present (since autophosphorylation occurs); 100 uM 1NA-PP1 was used as a control inhibitor. Incubation time was 3 hours.
T1 sequence (O96214 whole entry): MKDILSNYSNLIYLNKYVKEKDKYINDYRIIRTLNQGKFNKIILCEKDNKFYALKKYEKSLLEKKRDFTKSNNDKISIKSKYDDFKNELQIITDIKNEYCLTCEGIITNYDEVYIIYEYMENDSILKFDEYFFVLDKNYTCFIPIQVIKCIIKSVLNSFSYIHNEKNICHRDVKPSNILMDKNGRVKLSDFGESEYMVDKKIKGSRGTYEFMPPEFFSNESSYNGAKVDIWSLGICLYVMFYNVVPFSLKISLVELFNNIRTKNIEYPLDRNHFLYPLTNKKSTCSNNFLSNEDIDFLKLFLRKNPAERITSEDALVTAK

Lysine--tRNA ligase = Lysine--tRNA ligase (Plasmodium falciparum (isolate 3D7), UniProt Q8IDJ8); experiment: MMV: KRS recombinant Plasmodium falciparum Lysyl-tRNA-synthetase, assay with yeast tRNA, ATP, and lysine and 3 uM MMV malaria box compound, assay read out with kinase glo as % inhibition.
[3] = target: T2, Mitogen-activated protein kinase (Plasmodium falciparum, UniProt Q25917); experiment: Final concentrations were 1 uM ATP, 0.5 mM DTT, 1 mM MgCl2, 0.5 mg/mL BSA, and 10 ug/ml MAP2 in a buffer of 50 mM HEPES (pH 7.0). 0.5 mg/mL histone III-S served as the substrate (13); 100 uM AMP-PNP, an ATP analog, was used as a control inhibitor. Incubation time was 4 hours.
T2 sequence (Q25917 whole entry): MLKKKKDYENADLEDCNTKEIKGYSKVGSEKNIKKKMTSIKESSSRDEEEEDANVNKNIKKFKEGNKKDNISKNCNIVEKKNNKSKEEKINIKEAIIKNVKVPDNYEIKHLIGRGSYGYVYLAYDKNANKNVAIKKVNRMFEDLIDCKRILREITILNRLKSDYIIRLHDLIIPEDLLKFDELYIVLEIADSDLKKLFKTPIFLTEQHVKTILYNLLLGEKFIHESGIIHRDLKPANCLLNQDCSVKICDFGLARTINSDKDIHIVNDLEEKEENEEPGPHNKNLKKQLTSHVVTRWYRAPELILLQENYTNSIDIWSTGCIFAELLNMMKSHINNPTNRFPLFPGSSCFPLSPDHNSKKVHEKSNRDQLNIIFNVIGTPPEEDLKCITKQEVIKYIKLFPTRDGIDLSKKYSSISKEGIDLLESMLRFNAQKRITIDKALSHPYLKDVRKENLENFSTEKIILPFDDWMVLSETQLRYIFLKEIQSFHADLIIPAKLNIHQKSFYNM

[4] = target: T3, Calcium-dependent protein kinase 4 (Plasmodium falciparum (isolate 3D7), UniProt Q8IBS5); experiment: MMV: CDPK4 Protein kinase inhibition assay using recombinant PfCDPK4, syntide2 peptide substrate, ATP and KinaseGlo to measure % inhibition at 1 uM MMV box compound.
T3 sequence (Q8IBS5 whole entry): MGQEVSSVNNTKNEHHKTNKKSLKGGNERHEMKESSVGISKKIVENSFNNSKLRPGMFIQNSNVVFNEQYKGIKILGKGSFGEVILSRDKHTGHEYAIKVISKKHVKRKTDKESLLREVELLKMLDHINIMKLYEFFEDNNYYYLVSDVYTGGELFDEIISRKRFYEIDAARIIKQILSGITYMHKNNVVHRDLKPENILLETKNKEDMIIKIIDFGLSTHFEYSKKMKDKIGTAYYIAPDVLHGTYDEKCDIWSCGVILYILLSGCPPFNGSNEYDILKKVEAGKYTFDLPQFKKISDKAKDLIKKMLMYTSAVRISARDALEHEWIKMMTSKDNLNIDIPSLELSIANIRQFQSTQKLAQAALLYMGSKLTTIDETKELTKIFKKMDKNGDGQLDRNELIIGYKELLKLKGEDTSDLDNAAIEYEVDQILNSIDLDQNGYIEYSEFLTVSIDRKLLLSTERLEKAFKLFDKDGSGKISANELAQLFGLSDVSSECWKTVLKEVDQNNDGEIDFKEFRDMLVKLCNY

Proline--tRNA ligase = target: T4, Proline--tRNA ligase (Plasmodium falciparum (isolate 3D7), UniProt Q8I5R7); experiment: MMV: ProRS recombinant Plasmodium falciparum Prolyl-tRNA-synthetase, assay with yeast tRNA, ATP, and proline and 3 uM MMV malaria box compound, assay read out with kinase glo as % inhibition.
T4 sequence (Q8I5R7 whole entry): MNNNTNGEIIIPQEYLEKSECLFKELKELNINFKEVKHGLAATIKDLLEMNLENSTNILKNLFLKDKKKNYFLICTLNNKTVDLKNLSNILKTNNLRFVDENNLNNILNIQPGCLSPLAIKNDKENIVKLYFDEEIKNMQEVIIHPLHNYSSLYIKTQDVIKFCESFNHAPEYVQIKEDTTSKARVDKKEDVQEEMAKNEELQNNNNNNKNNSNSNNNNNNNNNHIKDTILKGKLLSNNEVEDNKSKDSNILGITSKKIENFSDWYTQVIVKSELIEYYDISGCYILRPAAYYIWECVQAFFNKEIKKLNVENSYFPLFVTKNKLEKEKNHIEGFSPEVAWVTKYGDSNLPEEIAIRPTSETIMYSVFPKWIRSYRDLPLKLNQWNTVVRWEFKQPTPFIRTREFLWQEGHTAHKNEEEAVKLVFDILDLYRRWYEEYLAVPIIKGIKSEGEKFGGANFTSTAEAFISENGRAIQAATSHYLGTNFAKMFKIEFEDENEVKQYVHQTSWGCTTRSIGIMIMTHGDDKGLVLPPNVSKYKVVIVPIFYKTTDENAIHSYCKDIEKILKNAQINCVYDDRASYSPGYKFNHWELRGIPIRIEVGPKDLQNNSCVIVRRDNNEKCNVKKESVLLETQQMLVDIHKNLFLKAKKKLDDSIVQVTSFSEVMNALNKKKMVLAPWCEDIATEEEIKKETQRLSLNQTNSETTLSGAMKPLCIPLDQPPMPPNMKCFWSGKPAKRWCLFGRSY

[5] = target: T5, Cdk-related protein kinase 6 (Plasmodium falciparum, UniProt O77239); experiment: Final concentrations were 1.5 uM ATP, 5 mM MnCl2, and 15 ug/ml PK6 in a buffer of 100 mM Tris-HCl (pH 7.5). 50 ug/mL MBP was provided as the substrate; 10 uM staurosporine was used as a control inhibitor. Incubation time was 3 hours and 40 minutes.The catalytic activity of each kinase was considered proportional to ATP consumed, as determined from measurements of residual [ATP] with the luciferase-based reagent Kinase-Glo (Promega) following incubation. Luminescence (proportional to residual [ATP]) was measured on the plate readers FLx800 (BioTek Instruments, Winooski, VT, USA) and MicroBeta2.
T5 sequence (O77239 whole entry): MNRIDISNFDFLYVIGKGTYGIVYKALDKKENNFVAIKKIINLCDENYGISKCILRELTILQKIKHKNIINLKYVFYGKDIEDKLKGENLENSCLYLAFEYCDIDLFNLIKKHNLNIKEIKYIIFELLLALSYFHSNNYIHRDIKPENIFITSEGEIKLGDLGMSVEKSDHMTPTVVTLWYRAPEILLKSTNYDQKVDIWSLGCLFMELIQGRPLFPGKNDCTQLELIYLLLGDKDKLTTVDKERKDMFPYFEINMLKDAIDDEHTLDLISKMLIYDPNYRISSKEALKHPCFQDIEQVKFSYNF

Measured: IC50

Sequence of Lysine--tRNA ligase (Q8IDJ8 whole entry): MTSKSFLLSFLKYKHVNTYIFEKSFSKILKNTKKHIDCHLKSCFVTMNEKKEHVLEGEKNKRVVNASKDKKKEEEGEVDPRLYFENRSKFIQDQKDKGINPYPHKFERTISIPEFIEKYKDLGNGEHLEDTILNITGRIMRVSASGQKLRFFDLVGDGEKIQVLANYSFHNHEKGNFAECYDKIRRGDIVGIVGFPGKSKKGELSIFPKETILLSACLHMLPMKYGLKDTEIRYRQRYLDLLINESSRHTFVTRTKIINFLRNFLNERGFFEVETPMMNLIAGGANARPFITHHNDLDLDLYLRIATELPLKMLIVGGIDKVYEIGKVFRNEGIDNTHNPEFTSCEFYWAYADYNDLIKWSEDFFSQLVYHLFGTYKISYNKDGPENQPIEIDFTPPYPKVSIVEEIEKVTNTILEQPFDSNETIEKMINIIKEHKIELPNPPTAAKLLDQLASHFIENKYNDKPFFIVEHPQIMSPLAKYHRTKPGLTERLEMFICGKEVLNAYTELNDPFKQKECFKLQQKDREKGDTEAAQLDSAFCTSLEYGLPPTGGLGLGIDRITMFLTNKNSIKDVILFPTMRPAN
Sequence of Calcium-dependent protein kinase 1 (P62344 whole entry): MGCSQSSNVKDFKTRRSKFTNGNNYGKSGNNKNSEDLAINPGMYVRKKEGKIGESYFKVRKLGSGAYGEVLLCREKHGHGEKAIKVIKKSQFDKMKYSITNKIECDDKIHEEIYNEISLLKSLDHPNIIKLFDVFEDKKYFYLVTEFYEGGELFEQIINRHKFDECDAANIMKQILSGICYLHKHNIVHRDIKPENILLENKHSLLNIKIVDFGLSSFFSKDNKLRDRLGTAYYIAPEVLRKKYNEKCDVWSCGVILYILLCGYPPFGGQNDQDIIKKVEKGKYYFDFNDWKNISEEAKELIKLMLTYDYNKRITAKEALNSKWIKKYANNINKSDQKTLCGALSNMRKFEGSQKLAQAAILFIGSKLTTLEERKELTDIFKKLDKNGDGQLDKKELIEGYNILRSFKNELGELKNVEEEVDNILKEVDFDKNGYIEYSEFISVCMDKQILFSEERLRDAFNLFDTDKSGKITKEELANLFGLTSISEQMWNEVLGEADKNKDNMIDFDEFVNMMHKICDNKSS

CCOc1ccccc1CN1CCc2nc3cc(C(C)(C)C)nn3c(O)c2C1
> 2500 nM: Lysine--tRNA ligase | Proline--tRNA ligase
> 1000 nM: all other assays above

Cc1cc(N2CCCC2)nc(Nc2ccc(NC(=O)CCc3ccccc3)cc2)n1
> 2500 nM: Lysine--tRNA ligase | Proline--tRNA ligase
> 1000 nM: all other assays above

CN1CCN(c2ncnc3c2[nH]c2ccc(Cl)cc23)CC1
> 2500 nM: Lysine--tRNA ligase | Proline--tRNA ligase
> 1000 nM: all other assays above

COc1ccc2nc(C)cc(Nc3cccc(O)c3)c2c1
> 2500 nM: Lysine--tRNA ligase | Proline--tRNA ligase
> 1000 nM: all other assays above

CN(C)CCCNCc1ccc(-c2ccc(F)c(Cl)c2)o1
> 2500 nM: Lysine--tRNA ligase | Proline--tRNA ligase
> 1000 nM: all other assays above

O=c1nc(C=Cc2ccc(Br)cc2)oc2ccccc12
700 nM: [4]
> 2500 nM: Lysine--tRNA ligase | Proline--tRNA ligase
> 1000 nM: all other assays above

COc1ccc2nc(N)nc(C)c2c1
> 2500 nM: Lysine--tRNA ligase | Proline--tRNA ligase
> 1000 nM: all other assays above

COc1ccc(C(=O)NC(c2ccc(Cl)cc2Cl)c2cc(Cl)c3cccnc3c2O)cc1 (configuration not stated)
> 2500 nM: Lysine--tRNA ligase | Proline--tRNA ligase
> 1000 nM: all other assays above

CCC(=O)Nc1nnc(Cc2ccc(OC)c(OC)c2)s1
> 2500 nM: Lysine--tRNA ligase | Proline--tRNA ligase
> 1000 nM: all other assays above

COc1cccc(C(=O)Nc2ccc(-c3nc4ccccc4[nH]3)cc2)c1
> 2500 nM: Lysine--tRNA ligase | Proline--tRNA ligase
> 1000 nM: all other assays above

CCOC(=O)c1cnc2ccc(Cl)cc2c1NCCCN(C)C
> 2500 nM: Lysine--tRNA ligase | Proline--tRNA ligase
> 1000 nM: all other assays above

Reference: ChEMBL document CHEMBL3301562, “MMV Box screening against Plasmodium falciparum protein kinases and aminoacyl tRNA synthetases”
